Experimental data from patent US10281476B2, “Methods to identify modulators of RyR calcium channels” (REGENTS OF THE UNIVERSITY OF MINNESOTA, priority 2013, dated 2019).
Where no end group is shown, it is not given here.

Key:
RyR2 [1] = assay: RyR2 free thiol content by monobromobimane (mBB) fluorescence; format: cell-based, rat; conditions: 50 μmol/L H2O2, with or without dantrolene pretreatment
Method: Intracellular reactive oxygen species (ROS) formation was measured in rat cardiac myocytes using a fluorescent probe, 5-(and -6)-chloromethyl-2′,7′-dichlorodihydrofluoroscein diacetate (H2DCFDA, 10 μmol/L) (Terentyev et al., Circ Res. 2008; 103:1466-1472). This assay is widely used as a reliable method for the measurement of intracellular ROS such as hydrogen peroxide, hydroxyl radicals, and hydroperoxide. The H2DCFDA dye was excited with the 488 nm and emission was collected at 500-530 nm. The content of free thiols in RyR2 was determined based on the monobromobimane (mBB, Calbiochem) fluorescence intensity, as previously described (Terentyev et al., Circ Res. 2008; 103:1466-1472; Ho et al., J Physiol. 2011; 19:4697-4708). In brief, myocytes were incubated with mBB for 1 hr. Myocytes were then lysed in lysis buffer and loaded on 6% SDS-PAGE gels. The fluorescence emission intensity of the RyR2-bound mBB was measured at 482 nm by exciting at 382 nm. mBB fluorescence was normalized to the RyR2 amount, which was determined using quantitative densitometry of Coomassie Blue-stained gels.
To monitor intracellular ROS level, we used H2DCFDA (10 μmol/L). […] To assess whether dantrolene can attenuate the extent of RyR2 thiol modification in H2O2-treated myocytes, we used a monobromobimane (mBB) fluorescence labeling assay.

RyR2 [2] = biological target: RyR2 (Rattus norvegicus, UniProt B0LPN4); assay: Fluorescent CaM binding at the Z-line and at RyR2 (FKBP12.6-CaM FRET) in permeabilized myocytes; parameters: These fluorescent proteins were added to saponin-permeabilized myocytes with or without pre-equilibration with saturating DPc10 concentration; endogenous in cells; host or cells: saponin-permeabilized rat ventricular myocytes
Method: These fluorescent proteins were added to saponin-permeabilized myocytes with or without pre-equilibration with saturating DPc10 concentration. […] We also did this with high [CaM] (500 nmol/L) that saturates RyR2 with CaM under control conditions (without DPc10; FIG. 17C). […] To test whether DPc10 and CaM bind at the same or nearby RyR2 sites, we measured FRET between CaM and DPc10.
CaM also binds to RyR2 and reduces RyR2 open probability, and works as a regulatory protein for RyR2 channel gating (Yamaguchi et al., J Biol Chem. 2003; 278:23480-23486; Balshaw et al., J Biol Chem. 2001; 276:20144-20153; Yang et al., Circ Res. 2014; 114:295-306); Yamaguchi et al., J Clin Invest. 2007; 117:1344-1353). We measured the effect of H2O2 on CaM-RyR2 binding affinity using F-CaM as in our previous reports (Yang et al., Circ Res. 2014; 114:295-306; Cornea et al., Proc Natl Acad Sci USA. 2009; 106:6128-6133).
(50 μmol/L) in media containing 50 μmol/L H2O2 (the same concentration used in myocyte pre-incubation experiments). This allowed F-CaM oxidation (and call this F-CaM^Ox). This was then diluted 2500-fold to 20 nmol/L F-CaM^Ox and no H2O2 was present in the myocyte bath.
As a further test of whether RyR2 oxidation alone inhibits subsequent CaM affinity, we removed H2O2 from the myocytes by repeated washing, prior to the addition of F-CaM.

Chain of RyR2 (Rattus norvegicus, UniProt B0LPN4) (B0LPN4 whole entry): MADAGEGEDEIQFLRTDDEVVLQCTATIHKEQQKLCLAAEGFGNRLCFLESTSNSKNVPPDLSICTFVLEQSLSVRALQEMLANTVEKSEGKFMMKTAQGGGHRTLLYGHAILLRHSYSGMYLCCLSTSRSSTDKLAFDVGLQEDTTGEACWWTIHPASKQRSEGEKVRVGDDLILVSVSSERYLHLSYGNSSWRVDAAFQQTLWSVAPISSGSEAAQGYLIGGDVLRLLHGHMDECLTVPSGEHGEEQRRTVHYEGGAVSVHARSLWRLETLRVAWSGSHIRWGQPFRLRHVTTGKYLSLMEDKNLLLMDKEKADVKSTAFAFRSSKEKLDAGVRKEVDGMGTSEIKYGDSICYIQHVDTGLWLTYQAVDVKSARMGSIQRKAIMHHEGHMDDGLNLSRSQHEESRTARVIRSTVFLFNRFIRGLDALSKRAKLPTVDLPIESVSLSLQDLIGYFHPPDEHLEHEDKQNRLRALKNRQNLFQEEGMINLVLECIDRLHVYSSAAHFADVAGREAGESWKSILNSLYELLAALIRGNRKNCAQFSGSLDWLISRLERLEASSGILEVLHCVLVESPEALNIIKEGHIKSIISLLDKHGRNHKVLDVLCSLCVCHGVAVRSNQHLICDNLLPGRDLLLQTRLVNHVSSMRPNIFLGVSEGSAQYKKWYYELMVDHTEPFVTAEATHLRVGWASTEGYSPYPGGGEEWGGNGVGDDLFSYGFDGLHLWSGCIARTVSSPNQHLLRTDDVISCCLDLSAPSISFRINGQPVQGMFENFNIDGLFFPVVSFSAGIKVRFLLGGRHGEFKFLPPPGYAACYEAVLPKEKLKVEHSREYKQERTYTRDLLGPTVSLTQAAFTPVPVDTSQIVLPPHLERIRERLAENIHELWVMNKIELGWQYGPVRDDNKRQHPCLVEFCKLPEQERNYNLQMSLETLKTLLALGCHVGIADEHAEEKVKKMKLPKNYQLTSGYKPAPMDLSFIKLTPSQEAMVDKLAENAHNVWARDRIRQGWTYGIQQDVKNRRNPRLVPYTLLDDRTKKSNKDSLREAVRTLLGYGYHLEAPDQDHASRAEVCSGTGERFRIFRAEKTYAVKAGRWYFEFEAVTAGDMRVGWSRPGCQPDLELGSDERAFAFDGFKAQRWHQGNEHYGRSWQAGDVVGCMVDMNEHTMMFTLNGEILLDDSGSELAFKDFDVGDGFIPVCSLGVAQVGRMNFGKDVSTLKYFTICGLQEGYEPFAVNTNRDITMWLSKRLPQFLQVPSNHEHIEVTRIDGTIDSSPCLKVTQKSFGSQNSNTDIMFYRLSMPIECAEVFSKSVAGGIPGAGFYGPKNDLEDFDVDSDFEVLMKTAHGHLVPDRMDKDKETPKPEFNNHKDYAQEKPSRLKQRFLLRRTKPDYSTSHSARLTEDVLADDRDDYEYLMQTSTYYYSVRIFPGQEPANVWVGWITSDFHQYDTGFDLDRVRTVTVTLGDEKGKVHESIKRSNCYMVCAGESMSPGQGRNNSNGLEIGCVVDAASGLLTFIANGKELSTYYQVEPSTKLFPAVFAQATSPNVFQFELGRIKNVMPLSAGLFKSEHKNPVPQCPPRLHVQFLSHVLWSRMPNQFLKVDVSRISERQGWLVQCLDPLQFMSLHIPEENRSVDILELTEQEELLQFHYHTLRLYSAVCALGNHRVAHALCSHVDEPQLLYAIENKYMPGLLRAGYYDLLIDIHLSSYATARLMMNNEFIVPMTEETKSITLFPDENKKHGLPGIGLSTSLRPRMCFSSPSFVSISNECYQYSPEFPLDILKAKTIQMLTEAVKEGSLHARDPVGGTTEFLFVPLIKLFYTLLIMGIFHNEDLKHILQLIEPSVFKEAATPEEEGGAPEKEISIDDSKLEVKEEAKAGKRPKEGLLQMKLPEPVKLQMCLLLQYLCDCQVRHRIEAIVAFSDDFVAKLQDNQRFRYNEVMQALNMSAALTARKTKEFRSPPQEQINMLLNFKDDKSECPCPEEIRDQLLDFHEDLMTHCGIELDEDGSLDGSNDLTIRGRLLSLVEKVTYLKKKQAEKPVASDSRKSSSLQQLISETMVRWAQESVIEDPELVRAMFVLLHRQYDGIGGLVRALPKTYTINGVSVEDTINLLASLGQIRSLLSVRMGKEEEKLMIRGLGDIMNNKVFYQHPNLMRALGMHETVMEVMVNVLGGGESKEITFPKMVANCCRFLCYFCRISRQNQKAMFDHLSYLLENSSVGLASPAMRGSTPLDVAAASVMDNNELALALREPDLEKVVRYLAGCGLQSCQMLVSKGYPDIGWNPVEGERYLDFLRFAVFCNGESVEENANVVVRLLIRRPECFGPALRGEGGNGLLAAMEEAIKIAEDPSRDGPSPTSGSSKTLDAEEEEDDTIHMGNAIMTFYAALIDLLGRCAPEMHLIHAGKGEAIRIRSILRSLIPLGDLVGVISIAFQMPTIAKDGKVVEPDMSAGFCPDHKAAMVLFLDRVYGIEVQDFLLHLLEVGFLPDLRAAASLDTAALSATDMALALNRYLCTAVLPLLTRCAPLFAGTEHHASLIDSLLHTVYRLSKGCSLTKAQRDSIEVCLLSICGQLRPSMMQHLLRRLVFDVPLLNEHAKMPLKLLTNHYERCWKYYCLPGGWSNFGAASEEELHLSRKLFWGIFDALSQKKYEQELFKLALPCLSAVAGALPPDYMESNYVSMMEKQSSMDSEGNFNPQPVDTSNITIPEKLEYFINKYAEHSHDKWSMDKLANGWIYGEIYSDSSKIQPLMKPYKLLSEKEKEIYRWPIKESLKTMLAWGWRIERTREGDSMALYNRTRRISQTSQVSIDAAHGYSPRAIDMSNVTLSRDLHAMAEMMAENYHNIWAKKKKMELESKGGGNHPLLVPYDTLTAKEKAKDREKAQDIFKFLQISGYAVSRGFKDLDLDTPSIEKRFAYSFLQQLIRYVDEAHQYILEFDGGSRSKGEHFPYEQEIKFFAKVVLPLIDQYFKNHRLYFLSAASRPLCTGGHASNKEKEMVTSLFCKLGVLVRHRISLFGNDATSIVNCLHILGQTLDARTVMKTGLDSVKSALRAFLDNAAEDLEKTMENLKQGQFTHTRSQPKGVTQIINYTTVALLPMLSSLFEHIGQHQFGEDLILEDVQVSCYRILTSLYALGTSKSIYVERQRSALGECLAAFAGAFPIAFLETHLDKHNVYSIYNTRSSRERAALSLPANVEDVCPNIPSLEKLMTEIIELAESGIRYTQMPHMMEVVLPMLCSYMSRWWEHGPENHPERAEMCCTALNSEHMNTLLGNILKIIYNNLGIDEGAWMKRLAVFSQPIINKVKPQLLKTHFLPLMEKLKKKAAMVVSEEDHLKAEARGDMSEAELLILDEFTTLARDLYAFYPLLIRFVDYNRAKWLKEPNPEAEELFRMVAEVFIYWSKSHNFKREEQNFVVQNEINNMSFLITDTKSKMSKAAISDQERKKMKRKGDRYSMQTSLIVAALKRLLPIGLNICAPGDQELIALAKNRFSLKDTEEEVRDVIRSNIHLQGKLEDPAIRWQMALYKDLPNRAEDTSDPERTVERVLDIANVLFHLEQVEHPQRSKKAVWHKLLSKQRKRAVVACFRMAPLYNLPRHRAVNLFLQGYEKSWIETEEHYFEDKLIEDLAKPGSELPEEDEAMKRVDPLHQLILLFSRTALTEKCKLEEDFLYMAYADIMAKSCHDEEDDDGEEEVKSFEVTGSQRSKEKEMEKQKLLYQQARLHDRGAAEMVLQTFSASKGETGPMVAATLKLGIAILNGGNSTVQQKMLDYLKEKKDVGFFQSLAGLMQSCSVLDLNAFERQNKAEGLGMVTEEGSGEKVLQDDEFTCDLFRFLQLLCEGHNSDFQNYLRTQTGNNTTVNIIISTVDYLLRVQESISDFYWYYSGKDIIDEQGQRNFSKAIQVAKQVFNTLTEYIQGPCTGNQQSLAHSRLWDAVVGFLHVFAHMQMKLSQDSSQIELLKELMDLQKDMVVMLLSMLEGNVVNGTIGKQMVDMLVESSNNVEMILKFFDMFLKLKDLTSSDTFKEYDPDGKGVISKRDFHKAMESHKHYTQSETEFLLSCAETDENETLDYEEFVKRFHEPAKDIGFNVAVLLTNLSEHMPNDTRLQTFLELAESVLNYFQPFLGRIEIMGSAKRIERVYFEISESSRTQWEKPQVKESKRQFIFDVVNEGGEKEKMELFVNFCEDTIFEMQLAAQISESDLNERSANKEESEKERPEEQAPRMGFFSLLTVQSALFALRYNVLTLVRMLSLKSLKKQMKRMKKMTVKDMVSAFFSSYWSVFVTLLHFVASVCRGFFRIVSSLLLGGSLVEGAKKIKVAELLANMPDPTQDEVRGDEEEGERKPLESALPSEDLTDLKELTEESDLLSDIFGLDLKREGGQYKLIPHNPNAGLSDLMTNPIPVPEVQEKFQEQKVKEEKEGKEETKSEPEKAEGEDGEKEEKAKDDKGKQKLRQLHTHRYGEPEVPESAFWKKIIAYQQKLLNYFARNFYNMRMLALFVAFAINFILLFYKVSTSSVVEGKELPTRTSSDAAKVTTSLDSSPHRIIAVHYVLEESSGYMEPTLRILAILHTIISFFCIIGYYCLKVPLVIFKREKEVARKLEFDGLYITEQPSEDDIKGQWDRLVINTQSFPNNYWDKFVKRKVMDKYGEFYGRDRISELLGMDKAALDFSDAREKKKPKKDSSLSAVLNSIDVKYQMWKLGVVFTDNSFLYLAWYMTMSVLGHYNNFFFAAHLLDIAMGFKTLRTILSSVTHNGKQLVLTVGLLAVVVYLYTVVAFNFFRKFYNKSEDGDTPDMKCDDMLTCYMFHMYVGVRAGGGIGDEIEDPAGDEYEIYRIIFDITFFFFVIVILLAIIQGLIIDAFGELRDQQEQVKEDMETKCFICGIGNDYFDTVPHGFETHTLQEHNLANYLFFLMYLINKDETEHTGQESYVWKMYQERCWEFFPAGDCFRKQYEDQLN

reduction of F-CaM binding, myocytes pre-treated with H2O2 (RyR2 [2]; 50 μmol/L H2O2 not removed, F-CaM 20 nmol/L)	reduction of F-CaM binding at the Z-line (RyR2 [2]; 50 μmol/L H2O2 removed by washing before F-CaM)	effect on F-CaM binding at the Z-line (RyR2 [2]; 10 and 50 μmol/L H2O2 pretreatment, F-CaM 20 nmol/L)	reduction of RyR2 A-CaM binding (RyR2 [2]; subsaturating A-CaM, 50 μM H2O2)	restoration of F-CaM binding in H2O2-treated myocytes (RyR2 [2]; dantrolene 1 μmol/L, AIP 1 μmol/L)	effect on CaM-RyR2 affinity under control conditions (RyR2 [2]; no H2O2)	Compound	content of free thiols on RyR2 / RyR2 oxidation level (RyR2 [1])	effect on CaM binding at the RyR2 and at the Z-line (RyR2 [2]; 20 nmol/L CaM, DPc10 pretreatment)	effect on CaM binding at the RyR2 (FRET) and at the Z-lines (total) (RyR2 [2]; 500 nmol/L AF568-34-CaM, DPc10-treated myocytes)
50%	32%	reduced	~50%			OO [H2O2, hydrogen peroxide]	significantly decreased		
				partially restore	Neither AIP nor dantrolene alter	O=C1CN(/N=C/c2ccc(-c3ccc([N+](=O)[O-])cc3)o2)C(O)=N1 [dantrolene]	did not attenuate		
						GFCPDHKAAMVLFLDRVYGIEVQDFLLHLLEVGFLP [DPc10]		significantly reduced	reduced
